Drawing on US5624923A, “Tricyclic diazepine vasopressin antagonists and oxytocin antagonists” (priority 1995, dated 1997), this text covers IC50 for 8 compounds.

Test [1] addresses T1, Rat Kidney Medullary V2 Receptors (Rattus norvegicus, UniProt Q00788).
T1 construct: Medullary tissues from rat kidneys are dissected out; from tissue; host or cells: rat kidney medulla membranes
The test can be described thus: Binding Assay to Rat Kidney Medullary V2 Receptors. Conditions: rat kidney medulla membranes; read-out: V2 IC50. The gist of the method:
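Membranes were prepared from rat kidney medulla and stored in 50.0 mM Tris-HCl pH 7.4 with 0.2% BSA and 0.1 mM PMSF. Radioligand competition ran 120 min at bench temperature, with 1.0 μM unlabeled ligand defining nonspecific binding. Compounds were added in 50% DMSO; filtration, tritium scintillation counting, IC50 from competition analysis.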

Test [2] deals with T2, V1 Receptor Subtype in Human Platelet (Homo sapiens, UniProt P37288).
T2 construct: tissue Hudson Valley Blood Services, Westchester Medical Center, Valhalla, N.Y; host or cells: human platelets (frozen platelet rich plasma)
T2 sequence (P37288 whole entry): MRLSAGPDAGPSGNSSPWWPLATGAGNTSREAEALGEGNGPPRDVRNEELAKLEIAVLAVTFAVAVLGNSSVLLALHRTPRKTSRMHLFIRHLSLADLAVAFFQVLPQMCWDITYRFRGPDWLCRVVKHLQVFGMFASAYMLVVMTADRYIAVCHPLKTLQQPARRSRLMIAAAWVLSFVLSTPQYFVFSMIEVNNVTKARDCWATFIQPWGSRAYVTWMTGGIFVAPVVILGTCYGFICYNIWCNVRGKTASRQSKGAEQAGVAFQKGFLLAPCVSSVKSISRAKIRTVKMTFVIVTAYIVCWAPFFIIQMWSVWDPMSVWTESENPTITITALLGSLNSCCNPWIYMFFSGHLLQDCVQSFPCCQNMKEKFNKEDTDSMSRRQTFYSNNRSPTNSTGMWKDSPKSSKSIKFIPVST
The test can be described thus: Binding to Vasopressin V1 receptor subtype in Human Platelet Membranes.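 Also: reported value is IC50.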 Particulars: human platelet membranes.

Test [3] concerns the target T3, Rat Hepatic V1 Receptors (Rattus norvegicus, UniProt P30560).
T3 construct: Rat liver plasma membranes expressing the vasopressin V1 receptor subtypes; from tissue; host or cells: rat liver plasma membranes
The test can be described thus: Binding Assay to Rat Hepatic V1 Receptors. Conditions: rat liver membranes; read-out: V1 IC50.

Structures are written as SMILES. pIC50: −log10 of the molar value.

T1 sequence (Q00788 whole entry): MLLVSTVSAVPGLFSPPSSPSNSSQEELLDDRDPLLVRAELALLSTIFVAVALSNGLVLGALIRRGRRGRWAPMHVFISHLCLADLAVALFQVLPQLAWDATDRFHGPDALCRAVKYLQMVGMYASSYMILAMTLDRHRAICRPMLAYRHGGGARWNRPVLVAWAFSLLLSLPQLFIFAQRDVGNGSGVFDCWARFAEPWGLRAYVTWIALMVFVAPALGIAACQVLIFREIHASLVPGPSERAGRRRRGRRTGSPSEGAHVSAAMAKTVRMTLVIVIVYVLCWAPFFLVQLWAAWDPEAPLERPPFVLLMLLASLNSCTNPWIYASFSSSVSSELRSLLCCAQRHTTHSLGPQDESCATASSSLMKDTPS
T3 sequence (P30560 whole entry): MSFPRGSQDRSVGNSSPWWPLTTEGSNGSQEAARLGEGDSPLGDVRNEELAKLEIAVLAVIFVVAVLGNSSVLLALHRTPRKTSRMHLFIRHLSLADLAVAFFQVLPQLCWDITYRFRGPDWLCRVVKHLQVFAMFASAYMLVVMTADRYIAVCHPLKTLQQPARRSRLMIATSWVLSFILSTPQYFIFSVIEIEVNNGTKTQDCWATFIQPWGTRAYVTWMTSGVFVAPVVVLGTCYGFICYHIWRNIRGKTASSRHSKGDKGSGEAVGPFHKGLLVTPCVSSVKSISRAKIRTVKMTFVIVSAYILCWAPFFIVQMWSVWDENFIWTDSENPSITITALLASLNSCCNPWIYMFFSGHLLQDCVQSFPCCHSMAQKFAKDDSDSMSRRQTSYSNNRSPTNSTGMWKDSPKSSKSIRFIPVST

By pIC50 is commonly meant −log10 of the IC50, conventionally taken in molar units. Regarding `COc1cc(C(=O)N2Cc3cccn3Cc3ccccc32)ccc1NC(=O)c1cccc(F)c1C` [Example 479, N-[4-(5H-pyrrolo[2,1-c][1,4]benzodiazepin-10(11H)-ylcarbonyl)-2-methoxy-phenyl]-3-fluoro-2-methylbenzamide], the pIC50 in test [1] is 8.10; in test [2], 7.64.
Regarding `Cc1ccccc1C(=O)Nc1ccc(C(=O)N2Cc3cccn3Cc3ccccc32)cc1Cl` [Example 530, N-[4-(5H-Pyrrolo[2,1-c][1,4]benzodiazepin-10(11H)-ylcarbonyl)-2-chlorophenyl]-2-methylbenzamide], the pIC50 in test [1] was 8.43; in test [2], 8.52.
On to `COc1cc(C(=O)N2Cc3cccn3Cc3ccccc32)ccc1NC(=O)c1ccc(Cl)cc1Cl` [Example 478, N-[4-(5H-pyrrolo[2,1-c][1,4]benzodiazepin-10(11H)-ylcarbonyl)-2-methoxy-phenyl]-2,4-dichlorobenzamide], for which, in test [2], the pIC50 is 7.49.
The same measure, in the same setting: to `O=C(Nc1ccc(C(=O)N2Cc3cccn3Cc3ccccc32)c(Cl)c1)c1ccccc1C(F)(F)F` [Example 528, N-[4-(5H-pyrrolo[2,1-c][1,4]benzodiazepin-10(11H)-ylcarbonyl]-3-chlorophenyl]-2-(trifluoromethyl)benzamide] belongs 6.70; to `O=C(Nc1ccc(C(=O)N2Cc3cccn3Cc3ccccc32)cc1)c1cc([N+](=O)[O-])ccc1Cl` [Example 480, N-[4-(5H-pyrrolo[2,1-c][1,4]benzodiazepin-10(11H)-ylcarbonyl)phenyl]-2-chloro-5-nitrobenzamide], 6.27.
Take `O=C(Nc1ccc(C(=O)N2Cc3cccn3Cc3ccccc32)c(Cl)c1)c1ccc(F)cc1Cl` [Example 527, N-[4-(5H-pyrrolo[2,1-c][1,4]benzodiazepin-10(11H)-ylcarbonyl]-3-chlorophenyl]-4-fluoro-2-chlorobenzamide]: in test [2], the pIC50 is 7.59.
As for `O=C(Nc1ccc(C(=O)N2Cc3ccnn3Cc3ccccc32)cc1)c1ccc(Cl)cc1Cl` [Example 217, N-[4-(4H-Pyrazolo[5,1-c][1,4]benzo-diazepin-5(10H)-ylcarbonyl)phenyl]-2,4-dichlorobenzamide], the figures for the pIC50 in test [3], in test [1] and in test [2] were 7.17, 8.30 and 6.72, respectively.
The compound `COc1cc(C(=O)N2Cc3cccn3Cc3ccccc32)ccc1NC(=O)c1ccccc1C` [Example 477, N-[4-(5H-pyrrolo[2,1-c][1,4]benzodiazepin-10(11H)-ylcarbonyl)-2-methoxy-phenyl]-2-methylbenzamide] had a pIC50 in test [2] of 8.52.
